According to patent US9938261B2, “Heterocyclic compounds and methods of use thereof” (AMBIT BIOSCIENCES CORPORATION, priority 2011, dated 2018):
Where two headings read alike, the source gives them in different places.

Key:
FLT3 = target: T1, FLT3 (Homo sapiens, UniProt P36888); test: Competition binding assay, FLT3 Kd
T1 construct: made in house
T1 sequence (P36888 27-993): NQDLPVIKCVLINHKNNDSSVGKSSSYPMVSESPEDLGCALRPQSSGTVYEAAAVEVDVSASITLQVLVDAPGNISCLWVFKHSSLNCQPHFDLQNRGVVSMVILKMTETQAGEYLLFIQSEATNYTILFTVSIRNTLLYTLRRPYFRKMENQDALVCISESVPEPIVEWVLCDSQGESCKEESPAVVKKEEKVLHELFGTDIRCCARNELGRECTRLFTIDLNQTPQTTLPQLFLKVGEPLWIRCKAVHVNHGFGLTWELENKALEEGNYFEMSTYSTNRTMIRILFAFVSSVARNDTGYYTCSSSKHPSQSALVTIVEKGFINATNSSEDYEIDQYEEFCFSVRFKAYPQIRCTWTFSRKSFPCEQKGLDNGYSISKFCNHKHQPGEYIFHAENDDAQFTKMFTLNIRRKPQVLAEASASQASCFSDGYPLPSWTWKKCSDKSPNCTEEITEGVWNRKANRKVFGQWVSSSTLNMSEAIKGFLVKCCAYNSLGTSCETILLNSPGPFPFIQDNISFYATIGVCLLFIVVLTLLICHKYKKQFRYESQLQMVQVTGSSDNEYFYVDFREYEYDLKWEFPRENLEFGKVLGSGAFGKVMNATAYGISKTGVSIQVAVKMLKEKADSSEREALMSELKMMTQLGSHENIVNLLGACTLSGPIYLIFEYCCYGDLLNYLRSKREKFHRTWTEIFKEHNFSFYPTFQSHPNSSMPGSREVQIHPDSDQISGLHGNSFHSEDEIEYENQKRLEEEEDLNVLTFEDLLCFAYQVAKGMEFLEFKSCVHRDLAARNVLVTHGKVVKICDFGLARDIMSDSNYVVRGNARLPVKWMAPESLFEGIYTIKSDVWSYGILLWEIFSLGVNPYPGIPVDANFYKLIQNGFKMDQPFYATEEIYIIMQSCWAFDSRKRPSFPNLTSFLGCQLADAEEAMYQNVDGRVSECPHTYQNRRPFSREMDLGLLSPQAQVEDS
Outline: (§1)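 First, biotinylated affinity ligands were loaded onto streptavidin magnetic beads and blocked. Kinase, beads and compound were then equilibrated 1 hour at room temperature, washed, and eluted with non-biotinylated ligand. Eluted kinase was measured by qPCR, with Kd fitted from an eleven-point threefold dilution series.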

KIT = target: T2, KIT (Homo sapiens, UniProt P10721); test: Competition binding assay, KIT Kd
T2 construct: made in house
Outline: as §1

[1] = target: kinase panel containing either 386 or 392 distinct kinases; test: Kinase selectivity score S10 from competition binding panel
Outline: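 S10 is the number of kinases with percent-of-control under 10, divided by all distinct wild-type kinases tested, from a single 10 μM concentration. Binding measured by qPCR of kinase recovered from ligand-coated beads after 1 h equilibrium at room temperature; kinases were phage fusions or DNA-tagged HEK-293 products.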

CSF1R = CSF1R (Homo sapiens, UniProt P07333); test: Competition binding assay, CSF1R Kd; design: made in house
Outline: as §1

[2] = compounds at 10 μM, 386 or 392 distinct kinases
[3] = 10 μM, panel of 386 or 392 distinct kinases

T2 sequence (P10721 26-976): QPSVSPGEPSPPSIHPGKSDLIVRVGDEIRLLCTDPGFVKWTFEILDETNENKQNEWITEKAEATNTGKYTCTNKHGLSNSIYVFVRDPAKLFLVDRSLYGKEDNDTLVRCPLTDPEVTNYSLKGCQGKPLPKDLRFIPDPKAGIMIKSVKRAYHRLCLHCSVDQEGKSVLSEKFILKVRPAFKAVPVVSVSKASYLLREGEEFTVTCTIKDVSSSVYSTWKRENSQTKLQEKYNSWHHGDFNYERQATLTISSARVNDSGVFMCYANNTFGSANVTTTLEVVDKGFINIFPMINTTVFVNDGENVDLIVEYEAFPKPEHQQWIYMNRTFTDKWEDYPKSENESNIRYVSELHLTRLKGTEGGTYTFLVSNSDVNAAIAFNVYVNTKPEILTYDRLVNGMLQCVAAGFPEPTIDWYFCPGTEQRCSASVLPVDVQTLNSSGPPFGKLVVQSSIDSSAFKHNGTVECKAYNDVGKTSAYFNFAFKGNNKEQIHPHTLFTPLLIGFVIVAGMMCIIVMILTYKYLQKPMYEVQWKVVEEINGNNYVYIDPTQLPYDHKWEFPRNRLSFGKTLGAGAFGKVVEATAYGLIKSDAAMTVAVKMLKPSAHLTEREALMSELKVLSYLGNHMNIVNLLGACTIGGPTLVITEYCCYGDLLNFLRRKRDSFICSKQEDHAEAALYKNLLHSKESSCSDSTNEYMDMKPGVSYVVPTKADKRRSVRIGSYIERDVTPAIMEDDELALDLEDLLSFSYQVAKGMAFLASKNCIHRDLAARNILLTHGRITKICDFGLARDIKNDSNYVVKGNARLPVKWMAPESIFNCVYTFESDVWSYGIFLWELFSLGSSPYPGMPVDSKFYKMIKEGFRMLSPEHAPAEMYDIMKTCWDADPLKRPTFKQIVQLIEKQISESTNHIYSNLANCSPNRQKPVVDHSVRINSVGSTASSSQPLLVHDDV
Sequence of CSF1R (P07333 20-972): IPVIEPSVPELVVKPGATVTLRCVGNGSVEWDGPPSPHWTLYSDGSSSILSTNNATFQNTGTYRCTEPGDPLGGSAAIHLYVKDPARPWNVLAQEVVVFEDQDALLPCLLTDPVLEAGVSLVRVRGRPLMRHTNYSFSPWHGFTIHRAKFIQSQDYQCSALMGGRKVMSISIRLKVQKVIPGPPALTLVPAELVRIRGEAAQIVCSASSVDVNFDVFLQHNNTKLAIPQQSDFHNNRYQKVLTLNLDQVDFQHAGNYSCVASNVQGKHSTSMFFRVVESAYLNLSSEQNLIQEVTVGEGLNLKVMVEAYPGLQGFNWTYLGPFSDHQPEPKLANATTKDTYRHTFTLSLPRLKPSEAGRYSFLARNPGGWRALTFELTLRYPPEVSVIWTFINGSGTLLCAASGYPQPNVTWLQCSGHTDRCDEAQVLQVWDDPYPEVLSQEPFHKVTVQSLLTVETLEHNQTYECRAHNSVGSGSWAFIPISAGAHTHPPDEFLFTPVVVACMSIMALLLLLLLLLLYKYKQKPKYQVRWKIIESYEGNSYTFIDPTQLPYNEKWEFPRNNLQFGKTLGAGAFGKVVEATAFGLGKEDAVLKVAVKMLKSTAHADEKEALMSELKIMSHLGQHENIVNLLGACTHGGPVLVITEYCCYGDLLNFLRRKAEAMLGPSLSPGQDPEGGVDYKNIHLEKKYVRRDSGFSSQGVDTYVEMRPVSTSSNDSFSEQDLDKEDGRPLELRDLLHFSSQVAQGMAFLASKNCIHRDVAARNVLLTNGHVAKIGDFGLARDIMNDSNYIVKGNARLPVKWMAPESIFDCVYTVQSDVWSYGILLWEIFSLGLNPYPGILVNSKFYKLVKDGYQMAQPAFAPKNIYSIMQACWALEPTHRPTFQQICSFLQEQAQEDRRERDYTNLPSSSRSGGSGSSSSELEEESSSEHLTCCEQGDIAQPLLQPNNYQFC

Row | SMILES | Kd (FLT3) [nM] | Kd (KIT) [nM] | Kinase specificity S(10) [1, 2] | Kd (CSF1R) [nM] | Kd (FLT3; competition binding) [nM] | Kd (KIT; competition binding) [nM] | Kinase specificity S(10) [1, 3] | Kd (CSF1R; competition binding) [nM]
1 | O[C@@H]1CCCC[C@H]1Nc1nc2ccc(Cn3cnc4cc(N5CCOCC5)cnc43)cc2s1 [Example 97, (1R,2R)-2-((6-((6-morpholino-3H-imidazo[4,5-b]pyridin-3-yl)methyl)benzo[d]thiazol-2-yl)amino)cyclohexanol] | 200 to 1000 | ≤ 100 | B (0.01<B≤0.02) | 5 to 20 | – | – | – | –
2 | CNC(=O)c1cn(Cc2ccc3nc(N[C@@H]4CCCC[C@H]4O)sc3c2)cn1 [Example 37, 1-((2-(((1R,2R)-2-hydroxycyclohexyl)amino)benzo[d]thiazol-6-yl)methyl)-N-methyl-1H-imidazole-4-carboxamide] | > 5000 | > 2000 | A (A≤0.01) | > 50 | – | – | – | –
3 | CSc1cnc2c(c1)ncn2Cc1ccc2nc(N[C@@H]3CCCC[C@H]3O)sc2c1 [Example 85, (1R,2R)-2-((6-((6-(methylthio)-3H-imidazo[4,5-b]pyridin-3-yl)methyl)benzo[d]thiazol-2-yl)amino)cyclohexanol] | 200 to 1000 | ≤ 100 | B (0.01<B≤0.02) | ≤ 5 | – | – | – | –
4 | N#Cc1cnc2c(c1)ncn2Cc1ccc2nc(N[C@@H]3CCCC[C@H]3O)sc2c1 [Example 43, 3-((2-(((1R,2R)-2-hydroxycyclohexyl)amino)benzo[d]thiazol-6-yl)methyl)-3H-imidazo[4,5-b]pyridine-6-carbonitrile] | 1000 to 5000 | 100 to 500 | B (0.01<B≤0.02) | 5 to 20 | – | – | – | –
5 | OC[C@H](Nc1nc2ccc(Cn3cnc4cccnc43)cc2s1)C1CCCCC1 [Example 64, (R)-2-((6-((3H-imidazo[4,5-b]pyridin-3-yl)methyl)benzo[d]thiazol-2-yl)amino)-2-cyclohexylethanol] | 200 to 1000 | ≤ 100 | C (C>0.02) | 5 to 20 | – | – | – | –
6 | N#CCOc1ccc2c(c1)ncn2Cc1ccc2nc(N[C@@H]3CCCC[C@H]3O)sc2c1 [Example 196, 2-((1-((2-(((1R,2R)-2-hydroxycyclohexyl)amino)benzo[d]thiazol-6-yl)methyl)-1H-benzo[d]imidazol-5-yl)oxy)acetonitrile] | – | – | – | – | 200 to 1000 | 100 to 500 | A (A≤0.01) | ≤ 5
7 | N#Cc1cc(F)c2c(c1)ncn2Cc1ccc2nc(N[C@@H]3CCCC[C@H]3O)sc2c1 [Example 206, 7-fluoro-1-((2-(((1R,2R)-2-hydroxycyclohexyl)amino)benzo[d]thiazol-6-yl)methyl)-1H-benzo[d]imidazole-5-carbonitrile] | – | – | – | – | 200 to 1000 | 100 to 500 | A (A≤0.01) | 5 to 20
8 | CCc1cnc2c(c1)ncn2Cc1ccc2nc(N[C@@H]3CCCC[C@H]3O)sc2c1 [Example 102, (1R,2R)-2-((6-((6-ethyl-3H-imidazo[4,5-b]pyridin-3-yl)methyl)benzo[d]thiazol-2-yl)amino)cyclohexanol] | 200 to 1000 | ≤ 100 | B (0.01<B≤0.02) | 5 to 20 | – | – | – | –
